Experimental findings from US20250206732A1, “COMPOUNDS AND METHODS FOR THE TARGETED DEGRADATION OF KRAS” (Arvinas Operations, Inc., priority 2022, published 2025) are described below.

The target in this test is T1, AsPC-1 HiBiT-KRASG12D (Homo sapiens, UniProt P01116, G12D).
T1 construct: insert the HiBiT tag onto the N-terminus of one or more of the endogenous KRAS alleles; endogenous in cells; host or cells: AsPC-1 (ATCC CRL-1682), CRISPR-Cas9 knock-in clone, one tagged allele
Nature of the test: HiBiT degradation assay (G12D), AsPC-1 HiBiT-KRASG12D cells. The test is classed as cell-based. Particulars: 24 hours treatment; for Dmax: ASPC1, AsPC-1 HiBiT-KRASG12D cells; for Dmax / AsPC-1 HiBiT-KRASG12D DMax: maximum degradation observed; for DC50 / AsPC-1 HiBiT-KRASG12D DMax: AsPC-1 HiBiT-KRASG12D cells; for DC50: HiBiT luminescence. The method in brief: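 Luminescence read-out of HiBiT-tagged endogenous KRASG12D in AsPC-1 cells after 24 h compound exposure at 37° C; lytic Nano-Glo HiBiT detection, 45 min at room temperature. A parallel alamar blue read (4 h) checked viability, normalized to DMSO-only controls.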

T1 sequence (P01116 1-188 isoform P01116-2 G12D): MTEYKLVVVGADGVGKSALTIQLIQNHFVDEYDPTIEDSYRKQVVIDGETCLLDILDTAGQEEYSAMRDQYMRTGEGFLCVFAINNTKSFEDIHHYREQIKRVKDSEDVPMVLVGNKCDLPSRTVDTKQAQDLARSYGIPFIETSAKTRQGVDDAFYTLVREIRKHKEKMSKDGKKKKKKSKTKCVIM

Take `CCc1cccc2cc(O)cc(-c3ncc4c(N5CC6CCC(C5)N6)nc(OCCN5CCC(C(C)(C)N6CCN(c7cc([C@H](C(=O)N8C[C@H](O)C[C@H]8C(=O)N[C@@H](C)c8ccc(-c9scnc9C)cc8)C(C)C)on7)CC6)CC5)nc4c3F)c12` (single isomer, unassigned) [Compound 251, (2S,4R)-1-[(2R*)-2-(3-{4-[2-(1-{2-[(4-{3,8-diazabicyclo[3.2.1]octan-3-yl}-7-(8-ethyl-3-hydroxynaphthalen-1-yl)-8-fluoropyrido[4,3-d]pyrimidin-2-yl)oxy]ethyl}piperidin-4-yl)propan-2-yl]piperazin-1-yl}-1,2-oxazol-5-yl)-3-methylbutanoyl]-4-hydroxy-N-[(1S)-1-[4-(4-methyl-1,3-thiazol-5-yl)phenyl]ethyl] pyrrolidine-2-carboxamide]: the maximal degradation (Dmax) lay within 80 to 100% and the 50% degradation concentration (DC50) was < 0.6 µM.

In turn, `CCc1cccc2cc(O)cc(-c3ncc4c(N5CC6CCC(C5)N6)nc(OCCN5CCC(CCC6CN(c7cc([C@@H](C(=O)N8C[C@H](O)C[C@H]8C(=O)N[C@@H](C)c8ccc(-c9scnc9C)cc8)C(C)C)on7)C6)CC5)nc4c3F)c12` (single isomer, unassigned) [Compound 253, (2S,4R)-1-[(2R*)-2-(3-{3-[2-(1-{2-[(4-{3,8-diazabicyclo[3.2.1]octan-3-yl}-7-(8-ethyl-3-hydroxynaphthalen-1-yl)-8-fluoropyrido[4,3-d]pyrimidin-2-yl)oxy]ethyl}piperidin-4-yl)ethyl]azetidin-1-yl}-1,2-oxazol-5-yl)-3-methylbutanoyl]-4-hydroxy-N-[(1S)-1-[4-(4-methyl-1,3-thiazol-5-yl)phenyl]ethyl] pyrrolidine-2-carboxamide] had a Dmax of 20 to 60% and a DC50 of 1 to 3 µM.

Regarding `CCc1cccc2cc(O)cc(-c3ncc4c(N5CC6CCC(C5)N6)nc(OCCN5CCC(C(C)(C)N6CCN(c7cc([C@@H](C(=O)N8C[C@H](O)C[C@H]8C(=O)N[C@@H](C)c8ccc(-c9scnc9C)cc8)C(C)C)on7)CC6)CC5)nc4c3F)c12` (single isomer, unassigned) [Compound 254, (2S,4R)-1-[(2R*)-2-(3-{4-[2-(1-{2-[(4-{3,8-diazabicyclo[3.2.1]octan-3-yl}-7-(8-ethyl-3-hydroxynaphthalen-1-yl)-8-fluoropyrido[4,3-d]pyrimidin-2-yl)oxy]ethyl}piperidin-4-yl)propan-2-yl]piperazin-1-yl}-1,2-oxazol-5-yl)-3-methylbutanoyl]-4-hydroxy-N-[(1S)-1-[4-(4-methyl-1,3-thiazol-5-yl)phenyl]ethyl] pyrrolidine-2-carboxamide], the Dmax was in the range of 20 to 60% and the DC50 is 0.6 to 1 µM.

As for `CCc1cccc2cc(O)cc(-c3ncc4c(N5CC6CCC(C5)N6)nc(OCCN5CCC(CC6CN(c7cc([C@H](C(=O)N8C[C@H](O)C[C@H]8C(=O)N[C@@H](C)c8ccc(-c9ccnn9C)cc8)C(C)C)on7)C6)CC5)nc4c3F)c12` (single isomer, unassigned) [Compound 264, (2S,4R)-1-[(2R*)-2-(3-{3-[(1-{2-[(4-{3,8-diazabicyclo[3.2.1]octan-3-yl}-7-(8-ethyl-3-hydroxynaphthalen-1-yl)-8-fluoropyrido[4,3-d]pyrimidin-2-yl)oxy]ethyl}piperidin-4-yl)methyl]azetidin-1-yl}-1,2-oxazol-5-yl)-3-methylbutanoyl]-4-hydroxy-N-[(1S)-1-[4-(1-methyl-1H-pyrazol-5-yl)phenyl]ethyl] pyrrolidine-2-carboxamide], the greatest degradation seen (Dmax) fell in the range of 80 to 100% and the DC50 was < 0.6 µM.

As to `CCc1cccc2cc(O)cc(-c3ncc4c(N5CC6CCC(C5)N6)nc(OCCN5CCC(CC6CN(c7cc([C@@H](C(=O)N8C[C@H](O)C[C@H]8C(=O)N[C@@H](C)c8ccc(-c9ccnn9C)cc8)C(C)C)on7)C6)CC5)nc4c3F)c12` (single isomer, unassigned) [Compound 265, (2S,4R)-1-[(2R*)-2-(3-{3-[(1-{2-[(4-{3,8-diazabicyclo[3.2.1]octan-3-yl}-7-(8-ethyl-3-hydroxynaphthalen-1-yl)-8-fluoropyrido[4,3-d]pyrimidin-2-yl)oxy]ethyl}piperidin-4-yl)methyl]azetidin-1-yl}-1,2-oxazol-5-yl)-3-methylbutanoyl]-4-hydroxy-N-[(1S)-1-[4-(1-methyl-1H-pyrazol-5-yl)phenyl]ethyl]pyrrolidine-2-carboxamide], the Dmax is 60 to 80% and the DC50 is 1 to 3 µM.

Consider `CCc1cccc2cc(O)cc(-c3cc4nc(OC[C@]56CCCN5[C@H](COC(=O)N5CCN(c7cc(C(C(=O)N8C[C@H](O)C[C@H]8C(=O)N[C@@H](C)c8ccc(-c9scnc9C)cc8)C(C)C)on7)CC5)CC6)nc(N5CC6CCC(C5)N6)c4cn3)c12` (single isomer, unassigned) [Compound 266], for which the Dmax is 80 to 100% and the DC50 was < 0.6 µM.

Take `CCc1cccc2cc(O)cc(-c3ccc4c(N5CC6CCC(C5)N6)nc(OC[C@]56CCCN5[C@H](COC(=O)N5CCN(c7cc(C(C(=O)N8C[C@H](O)C[C@H]8C(=O)N[C@@H](C)c8ccc(-c9scnc9C)cc8)C(C)C)on7)CC5)CC6)nc4c3F)c12` (single isomer, unassigned) [Compound 267]: the Dmax lay within 80 to 100% and the DC50 is < 0.6 µM.

Take `C#Cc1c(F)ccc2cccc(-c3ncc4c(N5CC6CCC(C5)N6)nc(OC[C@]56CCCN5[C@H](COC(=O)N5CCN(c7cc(C(C(=O)N8C[C@H](O)C[C@H]8C(=O)N[C@@H](C)c8ccc(-c9scnc9C)cc8)C(C)C)on7)CC5)CC6)nc4c3F)c12` (single isomer, unassigned) [Compound 270, [(3S,7aR)-7a-{[(4-{3,8-diazabicyclo[3.2.1]octan-3-yl}-7-(8-ethynyl-7-fluoronaphthalen-1-yl)-8-fluoropyrido[4,3-d]pyrimidin-2-yl)oxy]methyl}-hexahydro-1H-pyrrolizin-3-yl]methyl 4-{5-[(2R*)-1-[(2S,4R)-4-hydroxy-2-{[(1S)-1-[4-(4-methyl-1,3-thiazol-5-yl)phenyl]ethyl]carbamoyl}pyrrolidin-1-yl]-3-methyl-1-oxobutan-2-yl]-1,2-oxazol-3-yl}piperazine-1-carboxylate]: the Dmax is 80 to 100% and the DC50 is < 0.6 µM.

For the molecule `CCc1cccc2cc(O)cc(-c3ncc4c(N5CC6CCC(C5)N6)nc(OCCN5CCC(C6CN(c7cc([C@H](C(=O)N8C[C@H](O)C[C@H]8C(=O)N[C@@H](C)c8ccc(-c9scnc9C)cc8)C(C)C)on7)C6)CC5)nc4c3F)c12` (single isomer, unassigned) [Compound 275], the Dmax lay within 80 to 100% and the half-maximal degradation concentration (DC50) is < 0.6 µM.

As for `CCc1cccc2cc(O)cc(-c3ncc4c(N5CC6CCC(C5)N6)nc(OCCN5CCC(C6CN(c7cc([C@@H](C(=O)N8C[C@H](O)C[C@H]8C(=O)N[C@@H](C)c8ccc(-c9scnc9C)cc8)C(C)C)on7)C6)CC5)nc4c3F)c12` (single isomer, unassigned) [Compound 277], the Dmax was in the range of 20 to 60% and the DC50 lay in the range of 1 to 3 µM.

With `C#Cc1c(F)ccc2cc(O)cc(-c3ncc4c(N5CC6CCC(C5)N6)nc(OCCN5CCC(CC6CN(c7cc([C@H](C(=O)N8C[C@H](O)C[C@H]8C(=O)N[C@@H](C)c8ccc(-c9scnc9C)cc8)C(C)C)on7)C6)CC5)nc4c3F)c12` (single isomer, unassigned) [Compound 288], the Dmax lay within 80 to 100% and the DC50 was < 0.6 µM.

Regarding `C#Cc1c(F)ccc2cc(O)cc(-c3ncc4c(N5CC6CCC(C5)N6)nc(OCCN5CCC(CC6CCN(c7cc([C@@H](C(=O)N8C[C@H](O)C[C@H]8C(=O)N[C@@H](C)c8ccc(-c9scnc9C)cc8)C(C)C)on7)CC6)CC5)nc4c3F)c12` (single isomer, unassigned) [Compound 308], the Dmax lay within 60 to 80% and the DC50 was < 0.6 µM.

In the case of `CCc1cccc2cc(O)cc(-c3ncc4c(N5CC6CCC(C5)N6)nc(OCCN5CCC(CC6CCN(c7cc(C(C(=O)N8C[C@H](O)C[C@H]8C(=O)N[C@@H](C)c8ccc(-c9scnc9C)cc8)C(C)C)on7)CC6)CC5)nc4c3F)c12` (single isomer, unassigned) [Compound 320], the DC50 is < 0.6 µM and the “AsPC-1 HiBiT-KRASG12D DMax” value is reported as “A (80% < A ≤ 100%)”.

Turning to `CCc1cccc2cc(O)cc(-c3ncc4c(N5CC6CCC(C5)N6)nc(OCCN5CCC(CC6CCN(c7cc(C(C(=O)N8C[C@H](O)C[C@H]8C(=O)N[C@@H](C)c8ccc(-c9scnc9C)cc8)C(C)C)on7)CC6)CC5)nc4c3F)c12` (single isomer, unassigned) [Compound 321], the DC50 was in the range of 0.6 to 1 µM and the “AsPC-1 HiBiT-KRASG12D DMax” value was “C (20% <C ≤ 60%)”.

On to `Cc1ncsc1-c1ccc([C@H](C)NC(=O)[C@@H]2C[C@@H](O)CN2C(=O)[C@@H](c2cc(N3CCN(C(=O)OC[C@H]4CC[C@@]5(COc6nc(N7CC8CCC(C7)N8)c7cc(Cl)c(-c8cc(O)cc9ccccc89)c(F)c7n6)CCCN45)CC3)no2)C(C)C)cc1` (single isomer, unassigned) [Compound 329], for which the Dmax was in the range of 80 to 100% and the DC50 is < 0.6 µM.

Take `C#Cc1c(F)ccc2cccc(-c3ncc4c(N5CC6CCC(C5)N6)nc(OC[C@]56CCCN5[C@@H](COC(=O)N5CCN(c7cc([C@H](C(=O)N8C[C@H](O)C[C@H]8C(=O)N[C@@H](C)c8ccc(-c9scnc9C)cc8)C(C)C)on7)CC5)CC6)nc4c3F)c12` (single isomer, unassigned) [Compound 333]: the greatest degradation seen (Dmax) was in the range of 80 to 100% and the DC50 was < 0.6 µM.

On to `CCc1cccc2cc(O)cc(-c3ncc4c(N5CCCCCC5)nc(OC[C@@]56CCCN5[C@H](COc5cc([C@H](C(=O)N7C[C@H](O)C[C@H]7C(=O)N[C@@H](C)c7ccc(-c8scnc8C)cc7)C(C)C)on5)CC6)nc4c3F)c12` (single isomer, unassigned) [Compound 338], for which the Dmax is 80 to 100% and the DC50 was < 0.6 µM.
